Test results from patent US9351955B2, “Compounds and pharmaceutical compositions thereof for the treatment of cystic fibrosis” (Galapagos NV, priority 2013, dated 2016).

What was measured:
Type in all cases: cell-based
CFTR ΔF508 mutant [1] = target: T1, CFTR ΔF508 mutant (Homo sapiens, UniProt P13569, DEL508-508); assay: YFP-halide influx assay for the CFTR-ΔF508 mutation (96 well, CFBE41o- cells); details: read-out: EC50 measured by YFP-halide influx assay for the CFTR-ΔF508
T1 construct: expressed in transfected cells; host or cells: CFBE41o- (adenoviral transduction)
From the text: 6.1. YFP-Halide Influx Assay for the CFTR-ΔF508 Mutation
(§1) The YFP halide influx assay measures the functionality of the cystic fibrosis Transmembrane Conductance regulator (CFTR) channels in the cystic fibrosis bronchial epithelium cell line CFBE41o-. The assay is used to evaluate the capacity of compounds to increase the open probability of existing CFTR channels in the membrane. It makes use of the observation that the yellow fluorescent protein (YFP) variant YFP H148Q, I152L has its fluorescence substantially quenched by halide ions like Cl^− and I^−. (Galietta et al., 2001; Nagai et al., 2002)
For this purpose, CFBE410-cells are seeded in 96 well plates (6000 CFBE cells/well). One day after seeding, the CFBE cells are transduced with adenoviral vectors that direct the expression of the CFTR ΔF508 mutant and of the YFP reporter. Cells are incubated at 27° C., 5% CO2 for 24 hours so as to allow for the proper folding and migration to the membrane of the CFTR channel or treated with a CFTR modulator during 24 h at 37° C.
(§2) The F induced quenching of fluorescence is recorded immediately after injection of I^− for 7 seconds. The capacity of a compound to increase the channel opening is directly correlated with the decrease in fluorescence, and is expressed as (1-(fluorescence after 7 seconds (F)/fluorescence before injection (F0))) and an EC50 can be derived from a (1−F/F0) vs compound concentration plot.

CFTR ΔF508 mutant [2] = target: T1, CFTR ΔF508 mutant; assay: YFP-halide influx assay for the CFTR-ΔF508 mutation (384 well, CFBE41o- cells, FDSS/μCell); details: forskolin 10.67 μM, fluorescence after 36 seconds, read-out: EC50 measured by YFP-halide influx assay for the CFTR-ΔF508
Summary of the method: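 CFBE41o- cells were adenovirally transduced with ΔF508 CFTR and the YFP H148Q/I152L reporter. Cells were then held 24 h at 27 °C or treated 24 h at 37 °C with a CFTR modulator. Iodide-induced quench was recorded for 2 min, and EC50 was derived from 1−F/F0 at 36 s against compound concentration.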

CFTR G551D mutant = target: T2, CFTR G551D mutant (Homo sapiens, UniProt P13569, G551D); assay: YFP-halide influx assay for the CFTR-G551D mutation (HEK293 cells); details: HEK293 cells expressing CFTR G551D and YFP reporter; forskolin 10.67 μM; read-out: EC50 measured by YFP-halide influx assay for the CFTR-G551D
T2 construct: expressed in transfected cells; host or cells: HEK293 (reverse transfection with plasmids)
From the text: 6.3. YFP-Halide Influx Assay for the CFTR-G551D Mutation
as §1, with “channels.” for “channels in the cystic fibrosis bronchial epithelium cell line CFBE41o-.”, “channel opening” for “open probability”, “existing mutant” for “existing”, “I152L, F47L” for “I152L”, “2001)” for “2001; Nagai et al., 2002)”
For this purpose, HEK293-cells are seeded in 96 well plates. During seeding, the cells are reverse-transfected with plasmid vectors that direct the expression of the CFTR G551D mutant and of the YFP reporter. Cells are incubated at 37° C., 5% CO2 for 24 hours so as to allow for sufficient expression of the CFTR protein.
as §2, with “I^−-induced” for “F induced”, “(1−(fluorescence” for “(1-(fluorescence”

[3] = compounds of the invention, 96 well, forskolin 10.67 μM

T1 sequence (P13569 with tags, fused parts or gaps DEL508-508): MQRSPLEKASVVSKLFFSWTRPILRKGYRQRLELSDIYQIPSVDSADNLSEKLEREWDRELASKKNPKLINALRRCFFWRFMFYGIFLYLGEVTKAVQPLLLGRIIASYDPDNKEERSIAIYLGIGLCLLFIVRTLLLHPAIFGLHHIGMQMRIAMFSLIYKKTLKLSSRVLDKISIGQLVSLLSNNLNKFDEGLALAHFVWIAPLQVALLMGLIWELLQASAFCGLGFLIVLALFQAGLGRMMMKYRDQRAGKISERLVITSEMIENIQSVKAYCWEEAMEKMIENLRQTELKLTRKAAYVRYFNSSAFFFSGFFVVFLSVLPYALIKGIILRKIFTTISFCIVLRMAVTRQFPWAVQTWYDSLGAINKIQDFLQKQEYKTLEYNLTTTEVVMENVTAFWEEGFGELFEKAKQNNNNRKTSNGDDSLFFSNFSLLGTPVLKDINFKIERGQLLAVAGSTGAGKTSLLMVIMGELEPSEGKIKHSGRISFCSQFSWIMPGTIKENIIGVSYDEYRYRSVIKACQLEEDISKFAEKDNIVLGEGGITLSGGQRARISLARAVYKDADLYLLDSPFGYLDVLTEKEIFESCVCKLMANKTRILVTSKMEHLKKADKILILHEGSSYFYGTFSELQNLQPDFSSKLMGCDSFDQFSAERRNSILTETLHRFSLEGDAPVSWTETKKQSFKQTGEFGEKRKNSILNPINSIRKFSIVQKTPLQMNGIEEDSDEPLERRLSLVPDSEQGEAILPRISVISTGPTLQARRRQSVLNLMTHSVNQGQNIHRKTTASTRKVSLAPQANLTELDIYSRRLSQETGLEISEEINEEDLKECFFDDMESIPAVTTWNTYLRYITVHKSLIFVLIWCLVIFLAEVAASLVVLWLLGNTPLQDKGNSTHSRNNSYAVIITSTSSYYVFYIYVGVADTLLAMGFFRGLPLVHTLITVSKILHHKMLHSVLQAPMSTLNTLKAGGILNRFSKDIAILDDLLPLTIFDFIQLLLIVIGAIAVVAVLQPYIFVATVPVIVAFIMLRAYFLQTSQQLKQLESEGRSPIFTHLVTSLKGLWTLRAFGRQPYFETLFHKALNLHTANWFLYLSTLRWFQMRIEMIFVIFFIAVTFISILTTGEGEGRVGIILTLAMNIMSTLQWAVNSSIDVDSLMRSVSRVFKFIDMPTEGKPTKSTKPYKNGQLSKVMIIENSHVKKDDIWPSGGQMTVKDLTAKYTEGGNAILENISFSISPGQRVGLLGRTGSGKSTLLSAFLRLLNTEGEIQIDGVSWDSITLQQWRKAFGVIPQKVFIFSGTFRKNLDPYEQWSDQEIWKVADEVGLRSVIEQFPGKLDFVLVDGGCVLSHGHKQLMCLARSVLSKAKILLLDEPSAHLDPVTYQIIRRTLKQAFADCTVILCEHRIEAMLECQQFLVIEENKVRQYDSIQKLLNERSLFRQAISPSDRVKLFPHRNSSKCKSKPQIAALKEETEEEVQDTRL
T2 sequence (P13569 whole entry G551D): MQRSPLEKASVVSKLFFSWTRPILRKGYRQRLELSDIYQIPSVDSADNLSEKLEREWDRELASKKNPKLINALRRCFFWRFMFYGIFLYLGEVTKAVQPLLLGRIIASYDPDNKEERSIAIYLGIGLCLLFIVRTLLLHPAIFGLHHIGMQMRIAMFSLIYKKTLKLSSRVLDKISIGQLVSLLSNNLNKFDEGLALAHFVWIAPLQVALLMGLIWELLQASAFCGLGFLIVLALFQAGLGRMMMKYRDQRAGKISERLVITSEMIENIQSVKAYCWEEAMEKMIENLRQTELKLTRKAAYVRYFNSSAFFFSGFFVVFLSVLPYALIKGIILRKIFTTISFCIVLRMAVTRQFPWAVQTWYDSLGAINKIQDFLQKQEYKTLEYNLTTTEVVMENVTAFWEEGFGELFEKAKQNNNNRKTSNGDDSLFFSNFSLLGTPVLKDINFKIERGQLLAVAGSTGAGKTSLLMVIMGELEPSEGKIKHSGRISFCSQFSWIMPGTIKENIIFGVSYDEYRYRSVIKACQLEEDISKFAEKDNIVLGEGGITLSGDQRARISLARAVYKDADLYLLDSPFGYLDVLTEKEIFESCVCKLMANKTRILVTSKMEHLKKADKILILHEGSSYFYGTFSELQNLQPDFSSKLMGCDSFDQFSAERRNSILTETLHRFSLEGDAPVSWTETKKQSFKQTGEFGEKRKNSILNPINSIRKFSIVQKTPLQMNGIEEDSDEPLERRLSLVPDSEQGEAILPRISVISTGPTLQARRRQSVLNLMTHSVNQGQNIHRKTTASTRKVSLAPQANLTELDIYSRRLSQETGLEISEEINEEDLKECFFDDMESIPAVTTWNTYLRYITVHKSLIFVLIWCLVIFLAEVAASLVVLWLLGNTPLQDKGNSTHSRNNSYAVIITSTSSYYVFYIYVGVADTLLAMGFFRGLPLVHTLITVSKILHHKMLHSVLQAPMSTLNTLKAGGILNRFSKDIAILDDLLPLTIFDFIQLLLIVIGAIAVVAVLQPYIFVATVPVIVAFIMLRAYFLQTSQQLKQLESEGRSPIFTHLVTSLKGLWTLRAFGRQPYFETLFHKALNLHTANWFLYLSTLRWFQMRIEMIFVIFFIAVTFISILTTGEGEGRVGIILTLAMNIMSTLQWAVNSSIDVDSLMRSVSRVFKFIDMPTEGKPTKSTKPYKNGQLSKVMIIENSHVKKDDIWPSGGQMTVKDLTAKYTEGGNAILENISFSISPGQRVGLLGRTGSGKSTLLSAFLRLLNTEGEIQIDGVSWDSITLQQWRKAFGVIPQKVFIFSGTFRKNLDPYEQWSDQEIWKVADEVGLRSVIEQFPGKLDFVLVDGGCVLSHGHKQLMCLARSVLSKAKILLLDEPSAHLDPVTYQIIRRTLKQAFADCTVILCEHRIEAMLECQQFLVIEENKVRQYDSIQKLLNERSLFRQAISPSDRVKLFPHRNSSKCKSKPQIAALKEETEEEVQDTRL

Compound | EC50 (CFTR ΔF508 mutant [1]; comparative compounds) [nM] | EC50 (CFTR ΔF508 mutant [2]) [nM] | EC50 (CFTR ΔF508 mutant [1]; [3]) [nM] | EC50 (CFTR G551D mutant) [nM]
NC(=O)c1c(NC(=O)c2ccccc2O)sc2c1CCNC2 [C, 2-(2-hydroxybenzamido)-4,5,6,7-tetrahydrothieno[2,3-c]pyridine-3-carboxamide, reference compound] | > 10000 | – | – | –
CC1(C)Cc2c(sc(NC(=O)c3cccc(F)n3)c2C(N)=O)C(C)(C)O1 [Compound 24, N-(3-carbamoyl-5,5,7,7-tetramethyl-5,7-dihydro-4H-thieno[2,3-c]pyran-2-yl)-6-fluoropicolinamide] | – | 234 | 314 | –
CC1(C)Cc2c(sc(NC(=O)c3ccccc3-c3ncn[nH]3)c2C(N)=O)C(C)(C)O1 [Compound 26, 2-(2-(1H-1,2,4-triazol-5-yl)benzamido)-5,5,7,7-tetramethyl-5,7-dihydro-4H-thieno[2,3-c]pyran-3-carboxamide] | – | – | 1270 | –
CC1(C)Cc2c(sc(NC(=O)C3CNC(=O)C3)c2C(N)=O)C(C)(C)O1 (centres unmarked) [Compound 29, N-(3-carbamoyl-5,5,7,7-tetramethyl-5,7-dihydro-4H-thieno[2,3-c]pyran-2-yl)-5-oxopyrrolidine-3-carboxamide] | – | – | 10000 | –
CN1CCc2[nH]nc(C(=O)Nc3sc4c(c3C(N)=O)CC(C)(C)OC4(C)C)c2C1 [Compound 31, N-(3-carbamoyl-5,5,7,7-tetramethyl-5,7-dihydro-4H-thieno[2,3-c]pyran-2-yl)-5-methyl-4,5,6,7-tetrahydro-1H-pyrazolo[4,3-c]pyridine-3-carboxamide] | – | 354 | 354 | –
CC(=O)OC1(C(=O)Nc2sc3c(c2C(N)=O)CC(C)(C)OC3(C)C)CCOCC1 [Compound 41, 4-(3-carbamoyl-5,5,7,7-tetramethyl-5,7-dihydro-4H-thieno[2,3-c]pyran-2-ylcarbamoyl)tetrahydro-2H-pyran-4-yl acetate] | – | 602 | 1740 | –
Cn1cc(C(=O)Nc2sc3c(c2C(N)=O)CC(C)(C)OC3(C)C)c(C(F)F)n1 [Compound 117, N-(3-carbamoyl-5,5,7,7-tetramethyl-4H-thieno[2,3-c]pyran-2-yl)-3-(difluoromethyl)-1-methyl-pyrazole-4-carboxamide] | – | 239 | – | 6660
Cn1ccc(C(=O)Nc2sc3c(c2C(N)=O)CC(C)(C)OC3(C)C)n1 [Compound 119, N-(3-carbamoyl-5,5,7,7-tetramethyl-4H-thieno[2,3-c]pyran-2-yl)-1-methyl-pyrazole-3-carboxamide] | – | 159 | – | 2170
Cc1nc(C(=O)Nc2sc3c(c2C(N)=O)CC(C)(C)OC3(C)C)co1 [Compound 125, N-(3-carbamoyl-5,5,7,7-tetramethyl-4H-thieno[2,3-c]pyran-2-yl)-2-methyl-oxazole-4-carboxamide] | – | 194 | – | 3330
CC1(C)Cc2c(sc(NC(=O)c3ccn(CC(F)F)n3)c2C(N)=O)C(C)(C)O1 [Compound 126, N-(3-carbamoyl-5,5,7,7-tetramethyl-4H-thieno[2,3-c]pyran-2-yl)-1-(2,2-difluoroethyl)pyrazole-3-carboxamide] | – | 555 | – | 3330
CC1(C)Cc2c(sc(NC(=O)c3ccno3)c2C(N)=O)C(C)(C)O1 [Compound 133, N-(3-carbamoyl-5,5,7,7-tetramethyl-4H-thieno[2,3-c]pyran-2-yl)isoxazole-5-carboxamide] | – | 552 | – | 3330
Cc1ncoc1C(=O)Nc1sc2c(c1C(N)=O)CC(C)(C)OC2(C)C [Compound 135, N-(3-carbamoyl-5,5,7,7-tetramethyl-4H-thieno[2,3-c]pyran-2-yl)-4-methyl-oxazole-5-carboxamide] | – | 138 | – | 2030
Cc1ccc(C(=O)Nc2sc3c(c2C(N)=O)CC(C)(C)OC3(C)C)cn1 [Compound 143, N-(3-carbamoyl-5,5,7,7-tetramethyl-4H-thieno[2,3-c]pyran-2-yl)-6-methyl-pyridine-3-carboxamide] | – | 153 | – | 2710

Continued, values first:

EC50 (CFTR ΔF508 mutant [1]; comparative compounds) [nM] | EC50 (CFTR ΔF508 mutant [2]) [nM] | EC50 (CFTR ΔF508 mutant [1]; [3]) [nM] | EC50 (CFTR G551D mutant) [nM] | Compound
– | 83 | 219 | – | CC(O)C(=O)Nc1sc2c(c1C(N)=O)CC(C)(C)OC2(C)C (centres unmarked) [Compound 22, 2-(2-hydroxypropanamido)-5,5,7,7-tetramethyl-5,7-dihydro-4H-thieno[2,3-c]pyran-3-carboxamide]
– | 121 | – | 2410 | Cn1nccc1C(=O)Nc1sc2c(c1C(N)=O)CC(C)(C)OC2(C)C [Compound 120, N-(3-carbamoyl-5,5,7,7-tetramethyl-4H-thieno[2,3-c]pyran-2-yl)-2-methyl-pyrazole-3-carboxamide]
– | 41.7 | – | 2380 | CC1(C)Cc2c(sc(NC(=O)c3cccc(C(F)F)c3)c2C(N)=O)C(C)(C)O1 [Compound 122, 2-[[3-(difluoromethyl)benzoyl]amino]-5,5,7,7-tetramethyl-4H-thieno[2,3-c]pyran-3-carboxamide]
– | 87.9 | – | 825 | CC1(C)Cc2c(sc(NC(=O)c3ccccc3C(F)F)c2C(N)=O)C(C)(C)O1 [Compound 123, 2-[[2-(difluoromethyl)benzoyl]amino]-5,5,7,7-tetramethyl-4H-thieno[2,3-c]pyran-3-carboxamide]
– | 40.6 | – | 685 | CC1(C)Cc2c(sc(NC(=O)C3(C)CC(F)(F)C3)c2C(N)=O)C(C)(C)O1 [Compound 124, 2-[(3,3-difluoro-1-methyl-cyclobutanecarbonyl)amino]-5,5,7,7-tetramethyl-4H-thieno[2,3-c]pyran-3-carboxamide]
– | 34.2 | – | 878 | CC1(C)Cc2c(sc(NC(=O)c3cscn3)c2C(N)=O)C(C)(C)O1 [Compound 128, N-(3-carbamoyl-5,5,7,7-tetramethyl-4H-thieno[2,3-c]pyran-2-yl)thiazole-4-carboxamide]
– | 77.3 | – | 2290 | CC1(C)Cc2c(sc(NC(=O)c3cocn3)c2C(N)=O)C(C)(C)O1 [Compound 129, N-(3-carbamoyl-5,5,7,7-tetramethyl-4H-thieno[2,3-c]pyran-2-yl)oxazole-4-carboxamide]
– | 78.6 | – | 2020 | CC1(C)Cc2c(sc(NC(=O)c3cncs3)c2C(N)=O)C(C)(C)O1 [Compound 134, N-(3-carbamoyl-5,5,7,7-tetramethyl-4H-thieno[2,3-c]pyran-2-yl)thiazole-5-carboxamide]
– | 128 | – | 2660 | Cn1ncc(C(=O)Nc2sc3c(c2C(N)=O)CC(C)(C)OC3(C)C)c1C(F)(F)F [Compound 137, N-(3-carbamoyl-5,5,7,7-tetramethyl-4H-thieno[2,3-c]pyran-2-yl)-1-methyl-5-(trifluoromethyl)pyrazole-4-carboxamide]
– | 57 | – | 577 | CCCCc1ccc(C(=O)Nc2sc3c(c2C(N)=O)CC(C)(C)OC3(C)C)c(=O)[nH]1 [Compound 139, 6-butyl-N-(3-carbamoyl-5,5,7,7-tetramethyl-4H-thieno[2,3-c]pyran-2-yl)-2-oxo-1H-pyridine-3-carboxamide]
– | 99.5 | – | 1620 | Cc1cnc(C(=O)Nc2sc3c(c2C(N)=O)CC(C)(C)OC3(C)C)cn1 [Compound 141, N-(3-carbamoyl-5,5,7,7-tetramethyl-4H-thieno[2,3-c]pyran-2-yl)-5-methyl-pyrazine-2-carboxamide]
– | 12 | – | 2160 | CC1(C)Cc2c(sc(NC(=O)[C@](C)(O)C(F)(F)F)c2C(N)=O)C(C)(C)O1 [Compound 152, 5,5,7,7-tetramethyl-2-[[(2S)-3,3,3-trifluoro-2-hydroxy-2-methyl-propanoyl]amino]-4H-thieno[2,3-c]pyran-3-carboxamide]
